Test results taken from US20220081433A1, “CYCLIC SULFAMIDE COMPOUNDS FOR TREATMENT OF HBV” (Assembly Biosciences, Inc., priority 2018, published 2022).

Each compound was assayed on HBV (assay: Activity of test compounds on viral production from HepAD38 cells (viral load by qPCR of HBV core sequence)). Details: Hepatitis B virus, 120 h, 5 days, supernatant HBV DNA by qPCR vs DMSO control, read-out: viral load lowering EC50 (Activity).
Type: cell-based
Experimental: Assay Measuring Activity of Test Compounds on Viral Production from HepAD38 Cells
HepAD38 cells grown in a T-150 flask (Corning, cat#: 430825) with Growth Medium (DMEM/F12 (1:1) (Hyclone, cat#: SH30023.02), 1× Pen/Strep (Invitrogen, cat#: 15140-122), 10% FBS (Tissue Culture Biologics, cat#: 101), 250 μg/mL G418 (Alfa Aesar, cat#: J62671), 1 μg/mL Tetracycline (Teknova, cat#: T3320)) were detached with 0.25% trypsin-EDTA (Invitrogen, cat#: 25200-056). Tetracycline-free treatment medium (15 mL DMEM/F12 (1:1) 1×Pen/step, with 2% FBS, Tet-system approved (Clontech, cat#: 631106) were then added to mix, transferred into a 50 ml conical tube (Falcon, cat#: 21008-918) and spun at 1300 rpm for 5 min. Pelleted cells were then re-suspended/washed with 50 mL of 1×DPBS (Invitrogen, cat#: 14190-136) 2 times and 50 mL treatment medium twice. HepAD38 cells were then re-suspended with 10 mL of treatment medium, syringed and counted. Wells of 96-well clear bottom TC plate (Corning, cat#: 3904) were seeded at 50,000 cells/well in 180 μL of treatment medium, and 20 μL of either 10% DMSO (Sigma, cat#: D4540) as controls or a 10× solution of test compounds in 10% DMSO in treatment media was added for a final compound concentration starting at 10 μM, and plates were incubated in 5% CO2 incubator at 37° C. for 5 days.
Subsequently viral load production was assayed by quantitative PCR (qPCR) of the HBV core sequence. PCR reaction mixture containing forward primers HBV-f 5′-CTGTGCCTTGGGTGGCTTT-3′ (IDT DNA), Reverse primers HBV-r 5′-[…]-3′ (IDT DNA), Fluorescent TaqMan™ Probes HBV-probe 5′-FAM/AGCTCCAAA/ZEN/[…]/3IABkFQ-3′ (IDT DNA), 10 μL/well of PerfeCTa® qPCR ToughMix® (Quanta Biosciences, Cat#: 95114-05K), and 6 μL/well of DEPC water (Alfa Aesar, cat#: J62087) was prepared. Four μL of supernatant was added to 16 μL of the reaction mixture in a qPCR plate (Applied Biosytems, Cat#: 4309849), sealed with a film (Applied Biosystems, Cat#: 4311971), centrifuged for a few seconds, and subsequently run on an Applied Biosystems VIIA7. The PCR mixture was incubated at 45° C. for 5 min, then 95° C. for 10 min, followed by 40 cycles of 10 seconds at 95° C. and 20 seconds at 60° C. Viral load was quantified against known HBV DNA standards by using ViiA™ 7 Software. Viral load in the supernatant from wells with treated cells were compared against viral load in supernatant from DMSO control wells (≥ 3 per plate). Cell viability assay was performed with CellTiter-Glo Luminescent Cell Viability Assay (Promega, cat#: G7573) with modification. Mixed appropriate amount of CellTiter-Glo (CTG) 1×DPBS in a 1:1 ratio, added 100 uL of the mixture to each well followed completely removal of all supernatant in each well without touching cell surface. Incubated the plate at room temperature for 10 min on an orbital shaker, and then read the plate with a plate reader (TECAN M1000 or Envision). EC50 or CC50 values were calculated through curve-fitting of the four-parameter nonlinear-logistic-regression model (GraphPad Prism or Dotmatics). CC50 values were all >10 μM.

SMILES	EC50
Cc1cc(-c2cccc(C3CC(C(=O)Nc4ccc(F)c(Cl)c4)N(C)S(=O)(=O)N3)c2)ccc1F (centres unmarked) [Example 10, N-(3-Chloro-4-fluorophenyl)-5-(4′-fluoro-3′-methyl-[1,1′-biphenyl]-3-yl)-2-methyl-1,2,6-thiadiazinane-3-carboxamide 1,1-dioxide]	< 1 µM
CN1C(C(=O)Nc2ccc(F)c(Cl)c2)CC(c2cccc(C3=CCOCC3)c2)NS1(=O)=O (centres unmarked) [Example 11, N-(3-Chloro-4-fluorophenyl)-5-(3-(3,6-dihydro-2H-pyran-4-yl)phenyl)-2-methyl-1,2,6-thiadiazinane-3-carboxamide 1,1-dioxide]	< 1 µM
COC(=O)c1cccc(-c2cccc(C3CC(C(=O)Nc4ccc(F)c(Cl)c4)N(C)S(=O)(=O)N3)c2)c1 (centres unmarked) [Example 12, Methyl 3′-(5-((3-Chloro-4-fluorophenyl)carbamoyl)-6-methyl-1,1-dioxido-1,2,6-thiadiazinan-3-yl)-[1,1′-biphenyl]-3-carboxylate]	< 1 µM
CN1C(C(=O)Nc2ccc(F)c(Cl)c2)CC(c2cccc(C3CC3)c2)NS1(=O)=O (centres unmarked) [Example 13, N-(3-Chloro-4-fluorophenyl)-5-(3-cyclopropylphenyl)-2-methyl-1,2,6-thiadiazinane-3-carboxamide 1,1-dioxide]	< 1 µM
COc1ccc(-c2cccc(C3CC(C(=O)Nc4ccc(F)c(Cl)c4)N(C)S(=O)(=O)N3)c2)cc1C(F)(F)F (centres unmarked) [Example 14, N-(3-Chloro-4-fluorophenyl)-5-(4′-methoxy-3′-(trifluoromethyl)-[1,1′-biphenyl]-3-yl)-2-methyl-1,2,6-thiadiazinane-3-carboxamide 1,1-dioxide]	1 to 5 µM
COC(=O)Cc1ccc(-c2cccc(C3CC(C(=O)Nc4ccc(F)c(Cl)c4)N(C)S(=O)(=O)N3)c2)cc1 (centres unmarked) [Example 15, Methyl 2-(3′-(5-((3-chloro-4-fluorophenyl)carbamoyl)-6-methyl-1,1-dioxido-1,2,6-thiadiazinan-3-yl)-[1,1′-biphenyl]-4-yl)acetate]	< 1 µM
Cc1nn(C)cc1-c1cccc(C2CC(C(=O)Nc3ccc(F)c(Cl)c3)N(C)S(=O)(=O)N2)c1 (centres unmarked) [Example 16, N-(3-Chloro-4-fluorophenyl)-5-(3-(1,3-dimethyl-1H-pyrazol-4-yl)phenyl)-2-methyl-1,2,6-thiadiazinane-3-carboxamide 1,1-dioxide]	< 1 µM
CN1C(C(=O)Nc2ccc(F)c(Cl)c2)CC(c2cccc(-c3cnn(CC(=O)O)c3)c2)NS1(=O)=O (centres unmarked) [Example 17, 2-(4-(3-(5-((3-Chloro-4-fluorophenyl)carbamoyl)-6-methyl-1,1-dioxido-1,2,6-thiadiazinan-3-yl)phenyl)-1H-pyrazol-1-yl)acetic acid]	5 to 10 µM
CN1CC=C(c2cccc(C3CC(C(=O)Nc4ccc(F)c(Cl)c4)N(C)S(=O)(=O)N3)c2)CC1 (centres unmarked) [Example 18, N-(3-Chloro-4-fluorophenyl)-2-methyl-5-(3-(1-methyl-1,2,3,6-tetrahydropyridin-4-yl)phenyl)-1,2,6-thiadiazinane-3-carboxamide 1,1-dioxide]	< 1 µM
CN1C(C(=O)Nc2ccc(F)c(Cl)c2)CC(c2cccc(-c3cccc(C(=O)O)c3)c2)NS1(=O)=O (centres unmarked) [Example 19, 3′-(5-((3-Chloro-4-fluorophenyl)carbamoyl)-6-methyl-1,1-dioxido-1,2,6-thiadiazinan-3-yl)-[1,1′-biphenyl]-3-carboxylic acid]	1 to 5 µM
CN1C(C(=O)Nc2ccc(F)c(Cl)c2)CC(c2cccc(-c3cncn3C)c2)NS1(=O)=O (centres unmarked) [Example 20, N-(3-Chloro-4-fluorophenyl)-2-methyl-5-(3-(1-methyl-1H-imidazol-5-yl)phenyl)-1,2,6-thiadiazinane-3-carboxamide 1,1-dioxide]	< 1 µM
CN1C(C(=O)Nc2ccc(F)c(Cl)c2)CC(c2cccc(-c3ccc(C(F)(F)F)cc3)c2)NS1(=O)=O (centres unmarked) [Example 21, N-(3-Chloro-4-fluorophenyl)-2-methyl-5-(4′-(trifluoromethyl)-[1,1′-biphenyl]-3-yl)-1,2,6-thiadiazinane-3-carboxamide 1,1-dioxide]	< 1 µM
CN1C(C(=O)Nc2ccc(F)c(Cl)c2)CC(c2cccc(-c3ccccn3)c2)NS1(=O)=O (centres unmarked) [Example 22, N-(3-Chloro-4-fluorophenyl)-2-methyl-5-(3-(pyridin-2-yl)phenyl)-1,2,6-thiadiazinane-3-carboxamide 1,1-dioxide]	< 1 µM
CN1C(C(=O)Nc2ccc(F)c(Cl)c2)CC(c2cccc(N3CCCCC3)c2)NS1(=O)=O (centres unmarked) [Example 23, N-(3-Chloro-4-fluorophenyl)-2-methyl-5-(3-(piperidin-1-yl)phenyl)-1,2,6-thiadiazinane-3-carboxamide 1,1-dioxide]	< 1 µM
CN1C(C(=O)Nc2ccc(F)c(Cl)c2)CC(c2cccc(N3CCOCC3)c2)NS1(=O)=O (centres unmarked) [Example 24, N-(3-Chloro-4-fluorophenyl)-2-methyl-5-(3-morpholinophenyl)-1,2,6-thiadiazinane-3-carboxamide 1,1-dioxide]	< 1 µM
CN1C(C(=O)Nc2ccc(F)c(Cl)c2)CC(c2cccc(-n3cccn3)c2)NS1(=O)=O (centres unmarked) [Example 26, 5-(3-(1H-Pyrazol-1-yl)phenyl)-N-(3-chloro-4-fluorophenyl)-2-methyl-1,2,6-thiadiazinane-3-carboxamide 1,1-dioxide]	< 1 µM
Cc1nnc(C2CC(C(=O)Nc3ccc(F)c(Cl)c3)N(C)S(=O)(=O)N2)o1 (centres unmarked) [Example 29, N-(3-Chloro-4-fluorophenyl)-2-methyl-5-(5-methyl-1,3,4-oxadiazol-2-yl)-1,2,6-thiadiazinane-3-carboxamide 1,1-dioxide]	1 to 5 µM
Cc1nnc(C2CC(C(=O)Nc3ccc(F)c(Cl)c3)N(C)S(=O)(=O)N2)n1C (centres unmarked) [Example 32, N-(3-Chloro-4-fluorophenyl)-5-(4,5-dimethyl-4H-1,2,4-triazol-3-yl)-2-methyl-1,2,6-thiadiazinane-3-carboxamide 1,1-dioxide]	5 to 10 µM
CN1C(C(=O)Nc2ccc(F)c(Cl)c2)CC(c2nnc(Cc3ccccc3)n2C)NS1(=O)=O (centres unmarked) [Example 33, 5-(5-Benzyl-4-methyl-4H-1,2,4-triazol-3-yl)-N-(3-chloro-4-fluorophenyl)-2-methyl-1,2,6-thiadiazinane-3-carboxamide 1,1-dioxide]	5 to 10 µM
CN1C(C(=O)Nc2ccc(F)c(Cl)c2)CC(c2ncc(-c3ccccc3)n2C)NS1(=O)=O (centres unmarked) [Example 34, N-(3-Chloro-4-fluorophenyl)-2-methyl-5-(1-methyl-5-phenyl-1H-imidazol-2-yl)-1,2,6-thiadiazinane-3-carboxamide 1,1-dioxide]	5 to 10 µM
CN1C(C(=O)Nc2ccc(F)c(Cl)c2)CC(c2ccc(-c3cn(C)cn3)o2)NS1(=O)=O (centres unmarked) [Example 36, N-(3-Chloro-4-fluorophenyl)-2-methyl-5-(5-(1-methyl-1H-imidazol-4-yl)furan-2-yl)-1,2,6-thiadiazinane-3-carboxamide 1,1-dioxide]	< 1 µM
CN1C(C(=O)Nc2ccc(F)c(Cl)c2)CC(c2n[nH]c(=O)n2-c2ccccc2)NS1(=O)=O (centres unmarked) [Example 37, N-(3-Chloro-4-fluorophenyl)-2-methyl-5-(5-oxo-4-phenyl-4,5-dihydro-1H-1,2,4-triazol-3-yl)-1,2,6-thiadiazinane-3-carboxamide 1,1-dioxide]	1 to 5 µM
CN1C(C(=O)Nc2ccc(F)c(Cl)c2)CC(c2n[nH]c(=O)n2Cc2ccccc2)NS1(=O)=O (centres unmarked) [Example 38, 5-(4-Benzyl-5-oxo-4,5-dihydro-1H-1,2,4-triazol-3-yl)-N-(3-chloro-4-fluorophenyl)-2-methyl-1,2,6-thiadiazinane-3-carboxamide 1,1-dioxide]	5 to 10 µM
